The values below come from PubChem BioAssay (NCI).

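Compound exposure: 48 hours, 5 concentrations, 96-well plates. TGI is the concentration that stops growth completely.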

Among the test systems are EKVX NSCLC; SNB-75 CNS; IGROV1 ovarian; KM12 colon; HCC-2998 colon; NCI/ADR-RES ovarian; A498 renal; HT29 colon; T-47D breast; MCF7 breast; SF-295 CNS; BT-549 breast; MOLT-4 leukemia.
Common to all, as to experiment: NCI tumour cell line growth inhibition, 48 h

In the case of `CC(=O)NC1C(OCc2ccccc2)OC(CO)C(O)C1OC(C)C(=O)NC(C(=O)NC(CCC(=O)Nc1ccc2c(c1)CN1C(=O)c3ccccc3C1=N2)C(N)=O)C(C)C` (stereo not given), the TGI in the assay with EKVX NSCLC, in the assay with SNB-75 CNS, in the assay with IGROV1 ovarian, with KM12 colon, with HCC-2998 colon and with NCI/ADR-RES ovarian was > 100 µM throughout. Moreover, the TGI in the assay on A498 renal, with HT29 colon, with T-47D breast, in the assay on MCF7 breast, with SF-295 CNS and in the assay on BT-549 breast was > 100 µM throughout. For the same compound, the TGI in the assay on MOLT-4 leukemia was > 100 µM.
Consider `COc1ccc(N=C/C=C/C(=C/COC(C)=O)OC(C)=O)cc1`, for which the TGI in the assay with EKVX NSCLC was > 100 µM; with SNB-75 CNS it was > 100 µM; in the assay on IGROV1 ovarian, 45.1 µM; in the assay on KM12 colon, > 100 µM; with HCC-2998 colon it was > 100 µM; in the assay with NCI/ADR-RES ovarian it was > 100 µM. Besides, the TGI with A498 renal is 62.9 µM; in the assay with HT29 colon it was 70.6 µM; with T-47D breast, > 100 µM; in the assay on MCF7 breast, > 100 µM; in the assay with SF-295 CNS it was > 100 µM; in the assay with BT-549 breast, > 100 µM. Also, the TGI in the assay on MOLT-4 leukemia was > 100 µM.
Regarding `Cc1c(O)c(OC2OC(CO)C(O)C(O)C2O)cc2c1CC[C@@H]1C2(C)C(=O)C[C@]2(C)[C@@H]([C@@](C)(O)C(O)CCC(C)(C)O)[C@H](O)C[C@@]12C` (stereo not given in full), the TGI in the assay on EKVX NSCLC, in the assay on SNB-75 CNS, with IGROV1 ovarian, in the assay with KM12 colon, in the assay with HCC-2998 colon and in the assay on NCI/ADR-RES ovarian was > 100 µM each time. For the same compound, the TGI in the assay on A498 renal, in the assay with HT29 colon, in the assay on T-47D breast, in the assay with MCF7 breast, in the assay with SF-295 CNS and in the assay with BT-549 breast was > 100 µM throughout. Moreover, the TGI in the assay with MOLT-4 leukemia is > 100 µM.
Consider `COc1cc(O)c2c(=O)cc(C3(OC(C)=O)C=CC(OC4OC(CO)C(O)C(O)C4O)C=C3)oc2c1` (stereo not given), for which the TGI in the assay with EKVX NSCLC, with SNB-75 CNS, with IGROV1 ovarian, in the assay with KM12 colon, in the assay with HCC-2998 colon and in the assay with NCI/ADR-RES ovarian was > 100 µM throughout. In addition, the TGI in the assay with A498 renal, with HT29 colon, in the assay with T-47D breast, with MCF7 breast, with SF-295 CNS and with BT-549 breast was > 100 µM in each case. Besides, in the assay on MOLT-4 leukemia, the TGI was > 100 µM.
`CC(C)Cn1cnnc1NS(=O)(=O)c1cc(C(=O)NN)c(Cl)cc1S`: the TGI with EKVX NSCLC, in the assay with SNB-75 CNS, in the assay on IGROV1 ovarian, in the assay with KM12 colon, in the assay with HCC-2998 colon and with NCI/ADR-RES ovarian was > 10 µM throughout. In addition, the TGI in the assay with A498 renal, in the assay with HT29 colon, in the assay on T-47D breast, with MCF7 breast, in the assay with SF-295 CNS and with BT-549 breast was > 10 µM each time. Further, in the assay on MOLT-4 leukemia, the TGI was > 10 µM.
`Cc1oc2nc(N(C)C)n3c(C)nnc3c2c1C`: the TGI in the assay on EKVX NSCLC, with SNB-75 CNS, in the assay with IGROV1 ovarian, with KM12 colon, in the assay on HCC-2998 colon and in the assay on NCI/ADR-RES ovarian was > 100 µM in each case. In addition, the TGI with A498 renal, with HT29 colon, in the assay with T-47D breast, in the assay with MCF7 breast, with SF-295 CNS and in the assay on BT-549 breast was > 100 µM in each case. Further, in the assay with MOLT-4 leukemia, the TGI was > 100 µM.
For `Cc1ccc2c(c1)C(=O)c1ccc(C)nc1C2=O`, the TGI is > 100 µM in the assay with EKVX NSCLC; > 100 µM in the assay on SNB-75 CNS; 83.2 µM in the assay with IGROV1 ovarian; > 100 µM in the assay with KM12 colon; 97.1 µM in the assay with HCC-2998 colon; 67.3 µM in the assay with NCI/ADR-RES ovarian. Further, the TGI with A498 renal is > 100 µM; with HT29 colon, > 100 µM; in the assay on T-47D breast, > 100 µM; in the assay on MCF7 breast, > 100 µM; with SF-295 CNS, > 100 µM; in the assay on BT-549 breast it was 92.8 µM. Moreover, in the assay on MOLT-4 leukemia, the TGI was > 100 µM.
Turning to `Nc1nc(Cl)c(N)c(NCC2(CO)CC(O)C2)n1` (stereo not given), the TGI with EKVX NSCLC, in the assay with SNB-75 CNS, with IGROV1 ovarian, with KM12 colon, in the assay with HCC-2998 colon and with NCI/ADR-RES ovarian was > 100 µM each time. Also, the TGI with A498 renal, in the assay with HT29 colon, in the assay on T-47D breast, in the assay with MCF7 breast, in the assay with SF-295 CNS and with BT-549 breast was > 100 µM in each case. The TGI in the assay with MOLT-4 leukemia is > 100 µM.
As to `COC(=O)[C@@H](COC(=O)/C=C/c1ccc(OC(C)=O)c(OC(C)=O)c1)NC(=O)/C=C/c1ccc(OC(C)=O)c(OC(C)=O)c1`, the TGI in the assay with EKVX NSCLC was 71.5 µM; in the assay on SNB-75 CNS, > 100 µM; in the assay on IGROV1 ovarian it was > 100 µM; in the assay with KM12 colon, 94.6 µM; in the assay with HCC-2998 colon, 76.4 µM; with NCI/ADR-RES ovarian, > 100 µM. In addition, the TGI with A498 renal was > 100 µM; with HT29 colon, 88 µM; in the assay on T-47D breast it was 34.9 µM; in the assay on MCF7 breast, > 100 µM; in the assay on BT-549 breast, > 100 µM; with MOLT-4 leukemia it was > 100 µM.
On to `O=C(N/N=C1\CCc2ccccc21)N/N=C1\CCc2ccccc21`, for which the TGI with SNB-75 CNS, in the assay on IGROV1 ovarian, with KM12 colon, with HCC-2998 colon, with NCI/ADR-RES ovarian and with A498 renal was > 100 µM throughout. For the same compound, the TGI in the assay with HT29 colon, in the assay with T-47D breast, in the assay on MCF7 breast, with SF-295 CNS, with BT-549 breast and in the assay on MOLT-4 leukemia was > 100 µM each time.
With `OCC1OC(NC(=S)NCSCCC(F)(F)C(F)(F)C(F)(F)C(F)(F)C(F)(F)C(F)(F)F)C(O)C(O)C1O` (stereo not given), the TGI in the assay with SNB-75 CNS is > 100 µM; in the assay with IGROV1 ovarian, > 100 µM; in the assay with KM12 colon it was > 100 µM; with HCC-2998 colon it was > 100 µM; in the assay with NCI/ADR-RES ovarian, > 100 µM; in the assay on A498 renal it was 12.6 µM. Besides, the TGI was > 100 µM with HT29 colon; > 100 µM with T-47D breast; > 100 µM with MCF7 breast; 60.5 µM with SF-295 CNS; > 100 µM in the assay with BT-549 breast; > 100 µM in the assay on MOLT-4 leukemia.
